In patent US8592344B2, “Pesticidal compositions comprising 4,5-dihydroxyindan-1-one” (Yissum Research Development Company of The Hebrew …, priority 2009, dated 2013):

Tests used:
[1] = test system: citrus rust mite, Phyllocoptruta oleivora; test: whole plant or invertebrate; assay type: in vivo; settings: recorded 24 h later
Description: The CRM population was obtained from Mineola Tangelo (C. paradisi×C. reticulata) fruits at the Tzrifin farm, on the coastal plain of Israel. No acaricides are being used at this farm, making the location a suitable place for our purposes. In the laboratory the pest was reared on young seedlings (6-8 weeks old) of sour orange (Citrus aurantium).
In order to determine the CRM dose response to the toxin, 0.01, 0.02, 0.05, 0.1, 0.2 and 0.4 mg/ml of RPLC-cleaned toxin, dissolved in a two ml volume of ddH2O, was sprayed on the CRM (thirty CRMs/leaf, in four replicates). The infested seedlings were incubated at 25° C., (12L: 12D). Mite mortality rates were recorded 24 h later.

[2] = test system: Agrobacterium tumefaciens (strain ID1); test: Antibacterial activity, inhibition haloes of chromatographed fractions; assay type: cell-based; settings: RPLC fraction in 10 μl methanol, 24 hours, 28° C.
Description: The bacterium was grown overnight in glass tubes containing a 5 ml Lennox Broth (LB, Difco). Fifty μl overnight-grown bacterial suspensions were added to 5 ml of LB containing 0.6% agar, and placed into Petri dishes (55 mm diameter). Each of the eluted chromatographed fractions was dried using a rotor evaporator, dissolved in 10 μl of methanol, pipetted into the Petri dishes and incubated at 28° C. Each dish was checked for inhibition haloes 24 hours later; 10 μl methanol alone was used as a control. This procedure was repeated four times to confirm of the toxicity of the fractions. The RPLC-cleaned fraction that was antagonistic to A. tumefaciens was concurrently assayed against the citrus rust mite (describe below).

With `O=C1CCc2c1ccc(O)c2O` [argovin, 4,5-dihydroxyindan-1-one] the mortality at 10 µg/mL ([1]; 0.01 mg/ml sprayed, control 6%) was 39%, the mortality at 200 µg/mL ([1]; 0.2 mg/ml sprayed) was 100% and the “activity against A. tumefaciens (inhibition halo)” value [2] was “active”.
